This is an account of results in ChEMBL document CHEMBL1201862, “PubChem BioAssay data set” (2004).

Among the test systems are ACHN; CCRF-CEM; HCT-15; HT-29; IGROV-1; K562; NCI-H226; NCI-H522; OVCAR-3; OVCAR-4; OVCAR-8; RXF 393; SF-539; SNB-19; SNB-75; SW-620; UACC-257; TK-10.
Common to all, as to test: inhibition of tumour cell growth, NCI panel, 48 h

The structures appear in SMILES notation.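 Briefly, cells in 96-well plates were exposed to five compound concentrations for 48 h, and endpoints were estimated by linear interpolation. The concentration for 50% growth inhibition is given as GI50.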 Active and inactive are the calls of the source. Cut-off read from the data, not from the text of the source: active = GI50 up to about 1.1 µM and inactive = higher. Where only a bound is given, the exact number is not on record here.

As for `N#CCc1cccc(CC#N)c1Br`, the GI50 was > 100 µM (inactive) in the experiment on ACHN; > 100 µM (inactive) in the experiment with CCRF-CEM; over 100 µM with HCT-15; > 100 µM (inactive) with HT-29; > 100 µM (inactive) in the experiment on IGROV-1; > 100 µM (inactive) with K562. For the same molecule, the GI50 in the experiment on NCI-H226 was > 100 µM (inactive); with NCI-H522, > 100 µM (inactive); in the experiment with OVCAR-3, > 100 µM (inactive); with OVCAR-4, > 100 µM (inactive); in the experiment with OVCAR-8 it was > 100 µM (inactive); with RXF 393, 35 µM (inactive). Moreover, the GI50 in the experiment with SF-539, in the experiment on SNB-19, in the experiment with SNB-75, with SW-620 and with UACC-257 was > 100 µM (inactive) each time.
With `O=C(N/N=C(\C1=Nc2ccc(Cl)cc2NC1O)C(O)/C=C/c1ccccc1)c1ccncc1` (stereo not drawn), the GI50 with ACHN is > 100 µM (inactive); in the experiment with CCRF-CEM it was > 100 µM (inactive); with HCT-15, over 100 µM; in the experiment with HT-29, > 100 µM (inactive); with IGROV-1, > 100 µM (inactive); with K562, > 100 µM (inactive). Besides, the GI50 in the experiment with NCI-H226, with NCI-H522, with OVCAR-3, in the experiment on OVCAR-4, with OVCAR-8 and in the experiment on RXF 393 was > 100 µM (inactive) each time. For the same molecule, the GI50 with SF-539, with SNB-19, in the experiment with SNB-75, with SW-620, in the experiment on TK-10 and in the experiment on UACC-257 was > 100 µM (inactive) each time.
With `O=C1c2ccccc2C(=O)N1CCn1ccc(NC(c2ccccc2)(c2ccccc2)c2ccccc2)nc1=O`, the GI50 in the experiment with ACHN was 22.5 µM (inactive); in the experiment on CCRF-CEM it was 20.1 µM (inactive); with HCT-15, 22.5 µM; in the experiment with HT-29, 16.8 µM (inactive); with IGROV-1 it was 22.2 µM (inactive); with K562, 20.3 µM (inactive). Also, the GI50 with NCI-H226 was 18.7 µM (inactive); in the experiment on NCI-H522, 20.2 µM (inactive); in the experiment with OVCAR-3, 24.3 µM (inactive); with OVCAR-4, 25.5 µM (inactive); in the experiment on OVCAR-8, 36.7 µM (inactive); with RXF 393 it was 18.8 µM (inactive). Also, the GI50 in the experiment on SF-539 is 16 µM (inactive); in the experiment with SNB-19 it was 25.2 µM (inactive); with SNB-75, 21.8 µM (inactive); in the experiment on SW-620, 29.3 µM (inactive); with TK-10 it was 26.9 µM (inactive); with UACC-257, 18 µM (inactive).
Turning to `CC(=O)O[C@H]1[C@H](O[C@H]2CC[C@]34C[C@]35CC[C@]3(C)[C@@H]([C@@]6(C)CC[C@@H](C(C)(C)O)O6)[C@@H](O)C[C@@]3(C)[C@@H]5C[C@H](O[C@@H]3O[C@H](CO)[C@@H](O)[C@H](O)[C@H]3O)[C@H]4C2(C)C)OC[C@@H](O)[C@@H]1O`, the GI50 in the experiment with ACHN was > 100 µM (inactive); in the experiment on CCRF-CEM it was 31.6 µM (inactive); with HCT-15, 42.2 µM; in the experiment on HT-29, 85.5 µM (inactive); with IGROV-1, > 100 µM (inactive); in the experiment on K562 it was 45.3 µM (inactive). Besides, the GI50 in the experiment with NCI-H226, in the experiment with NCI-H522, with OVCAR-3, in the experiment with OVCAR-4, with OVCAR-8 and in the experiment on RXF 393 was > 100 µM (inactive) in each case. In addition, the GI50 is 40.4 µM (inactive) in the experiment with SF-539; > 100 µM (inactive) in the experiment on SNB-19; > 100 µM (inactive) in the experiment on SNB-75; 25.4 µM (inactive) in the experiment on SW-620; > 100 µM (inactive) in the experiment with TK-10; > 100 µM (inactive) with UACC-257.
Regarding `COc1cc(C[S+]2CCCC2)c(SC)cc1C[S+]1CCCC1`, the GI50 in the experiment on ACHN was > 100 µM (inactive); in the experiment on CCRF-CEM, > 100 µM (inactive); in the experiment with HCT-15, over 100 µM; in the experiment with HT-29 it was > 100 µM (inactive); with IGROV-1, > 100 µM (inactive); in the experiment on K562 it was > 100 µM (inactive). Besides, the GI50 in the experiment with NCI-H226, in the experiment on NCI-H522, in the experiment on OVCAR-3, in the experiment on OVCAR-4, in the experiment on OVCAR-8 and with RXF 393 was > 100 µM (inactive) in each case. Also, the GI50 is > 100 µM (inactive) in the experiment with SF-539; 47.4 µM (inactive) with SNB-75; > 100 µM (inactive) with SW-620; > 100 µM (inactive) in the experiment on TK-10; > 100 µM (inactive) in the experiment with UACC-257.
Turning to `CCN(CC)CCCN1CCc2c([nH]c3ccccc23)C1c1cccnc1` (stereo not drawn), the GI50 was > 100 µM (inactive) in the experiment with ACHN; > 100 µM (inactive) in the experiment with CCRF-CEM; over 100 µM in the experiment on HCT-15; > 100 µM (inactive) in the experiment on HT-29; > 100 µM (inactive) in the experiment on IGROV-1; > 100 µM (inactive) in the experiment on K562. The GI50 in the experiment with NCI-H226 is > 100 µM (inactive); with NCI-H522, > 100 µM (inactive); with OVCAR-3 it was 88.3 µM (inactive); in the experiment with OVCAR-4, 96.8 µM (inactive); in the experiment with OVCAR-8 it was > 100 µM (inactive); in the experiment with RXF 393, > 100 µM (inactive). Moreover, the GI50 was > 100 µM (inactive) in the experiment with SF-539; > 100 µM (inactive) in the experiment on SNB-19; > 100 µM (inactive) with SNB-75; > 100 µM (inactive) in the experiment on SW-620; > 100 µM (inactive) in the experiment with TK-10; 42.8 µM (inactive) with UACC-257.
For `COc1ccccc1/C=C1\CCC(CNc2ccc(Cl)cc2)C1=O` (stereo not drawn), the GI50 with ACHN was 0.59 µM (active); in the experiment with CCRF-CEM it was 1.68 µM (inactive); with HCT-15, 1.41 µM; in the experiment with HT-29 it was 2.2 µM (inactive); with IGROV-1, 5.83 µM (inactive); in the experiment on K562, 0.215 µM (active). The GI50 was 14 µM (inactive) with NCI-H226; 1.57 µM (inactive) with NCI-H522; 10.2 µM (inactive) in the experiment with OVCAR-3; 14.7 µM (inactive) in the experiment with OVCAR-4; 3.46 µM (inactive) in the experiment on OVCAR-8; 16.3 µM (inactive) in the experiment on RXF 393. Moreover, the GI50 with SF-539 is 5.82 µM (inactive); in the experiment with SNB-19, 11.8 µM (inactive); with SNB-75 it was 15 µM (inactive); in the experiment on SW-620, 2.09 µM (inactive); in the experiment on TK-10, 5.18 µM (inactive); with UACC-257, 13.8 µM (inactive).
On to `O=C1CCC2(c3ccccc3)Nc3ncccc3N12` (stereo not drawn), for which the GI50 is > 100 µM (inactive) in the experiment on ACHN; > 100 µM (inactive) in the experiment with CCRF-CEM; over 100 µM with HCT-15; > 100 µM (inactive) in the experiment with HT-29; > 100 µM (inactive) with IGROV-1; > 100 µM (inactive) with K562. For the same molecule, the GI50 in the experiment on NCI-H226, in the experiment on NCI-H522, in the experiment on OVCAR-3, in the experiment on OVCAR-4, in the experiment with OVCAR-8 and in the experiment on RXF 393 was > 100 µM (inactive) in each case. For the same molecule, the GI50 with SF-539 was > 100 µM (inactive); in the experiment on SNB-75 it was 61.9 µM (inactive); with SW-620, > 100 µM (inactive); in the experiment with TK-10 it was > 100 µM (inactive); in the experiment with UACC-257, > 100 µM (inactive).
On to `O=C(O)CCC(NC(=O)c1ccccc1)C(=O)O` (stereo not drawn), for which the GI50 in the experiment with ACHN is > 100 µM (inactive); in the experiment with CCRF-CEM, > 100 µM (inactive); in the experiment on HCT-15, over 100 µM; in the experiment on HT-29 it was > 100 µM (inactive); in the experiment on IGROV-1, > 100 µM (inactive); in the experiment on K562 it was > 100 µM (inactive). Further, the GI50 in the experiment on NCI-H522, in the experiment on OVCAR-3, in the experiment with OVCAR-4, with OVCAR-8, in the experiment with RXF 393 and in the experiment with SF-539 was > 100 µM (inactive) throughout. In addition, the GI50 is > 100 µM (inactive) in the experiment with SNB-19; > 100 µM (inactive) in the experiment with SNB-75; 42.3 µM (inactive) with SW-620; > 100 µM (inactive) in the experiment on TK-10; > 100 µM (inactive) in the experiment with UACC-257.
For the molecule `COC(=O)C1C2CC3C(OC(=O)C31)C2OC(=O)[C@](OC)(c1ccccc1)C(F)(F)F` (stereo partly drawn), the GI50 in the experiment with ACHN is > 100 µM (inactive); in the experiment with CCRF-CEM, > 100 µM (inactive); in the experiment on HCT-15, over 100 µM; in the experiment with HT-29, > 100 µM (inactive); in the experiment on IGROV-1, > 100 µM (inactive); with K562, > 100 µM (inactive). Also, the GI50 in the experiment with NCI-H226, in the experiment with NCI-H522, in the experiment on OVCAR-3, with OVCAR-4, in the experiment on OVCAR-8 and in the experiment with RXF 393 was > 100 µM (inactive) each time. Besides, the GI50 with SF-539, in the experiment on SNB-19, with SNB-75, in the experiment on SW-620, in the experiment with TK-10 and in the experiment on UACC-257 was > 100 µM (inactive) throughout.
For `COC(=O)C(CC1=C(O)Nc2ccccc2N1)/C(=N/NC(N)=O)C(=O)Nc1ccccc1C` (stereo not drawn), the GI50 in the experiment on ACHN was > 100 µM (inactive); in the experiment on CCRF-CEM, 21.7 µM (inactive); in the experiment on HCT-15, 16.6 µM; with HT-29, 66.5 µM (inactive); with IGROV-1 it was > 100 µM (inactive); in the experiment on K562, 97.7 µM (inactive). The GI50 was > 100 µM (inactive) in the experiment on NCI-H226; 16.8 µM (inactive) in the experiment on NCI-H522; > 100 µM (inactive) in the experiment on OVCAR-3; > 100 µM (inactive) in the experiment with OVCAR-4; > 100 µM (inactive) with OVCAR-8; 38.5 µM (inactive) with RXF 393. The GI50 in the experiment with SF-539, in the experiment on SNB-19, in the experiment on SNB-75, in the experiment on TK-10 and in the experiment with UACC-257 was > 100 µM (inactive) in each case.
